Measured values: patent US9221800B2, “Isoxazole treatments for diabetes” (The Board of Regents of the University of Texas System, priority 2011, dated 2015)
“Also recorded” adds a separate entry of the source.

Assays:
MIN6 cells = test: Immunoblotting of MIN6 whole cell lysates; format: cell-based, mouse
Procedure: FIGS. 2[…]-1) activates insulin expression and improves β cell function in MIN6 cells. (FIG. 2A) Dose-response relationship of MIN6 cells treated with 5-80 μM Isx for 24 h or DMSO (0.08%-similar to the highest concentration of Isx). Whole cell lysates (40 μg) were subjected to immunoblotting using antibodies against BETA2NeuroD1, MafA, PDX-1, pERK1/2 (pT183/[…]), acetylated histones […] and ACH3K9 and total histone H3. (FIG. 2B) Quantitative RT-PCR of murine insulin1 and insulin2 gene expression in MIN6 cells treated with Isx for 24 h as in FIG. 2A. […] (FIG. 2D) Insulin content measured by ELISA in MIN6 cells treated with Isx for 24 or 48 h. (FIG. 2E) GSIS induced by glucose, amino acids (AA) and Exendin-4 (Ex-4) singly or in combination in MIN6 cells pretreated with Isx for 48 h. FIGS. 4[…]-1) is a HAT activator. (FIG. 4A) Immunoblots of acetylated histones in MIN6 cells pretreated with the indicated inhibitors for 16 h and then treated with vehicle or Isx. (FIGS. 4B-C) HDAC (FIG. 4B) and HAT (FIG. 4C) activities in 50 μg of nuclear extract protein from MIN6 cells treated with Isx or DMSO for 24 h. Trichostatin A (TSA; 2 μM) was added at as a positive control. HeLa nuclear extract also was included as a positive control. […] Statistical analysis was performed using Student's t test as in FIGS. 1A-E. *P<0.05; **P<0.01. (FIG. 4G) Simplified view of the actions of Isx. FIG. 6. Time course of […]-1) treatment in MIN6 cells. Immunoblotting of whole cell extracts from MIN6 cells grown for 24 h in complete DMEM containing […] and treated with 20 μM Isx for from 15 min to 24 h. The control (0 min) was treated with DMSO for 24 h. MIN6 cells were cultured in DMEM (Gibco), containing 25 mM glucose, 10% fetal bovine serum, 10 mM Hepes pH 7.4, 10.2 mM L-glutamine, […] sodium pyruvate, 2.5 mM β-mercaptoethanol, 100 U/ml penicillin and 100 μg/ml streptomycin at 37° C. in 10% CO2. Human islets were obtained from the ICR Basic Science Islet Distribution and from the University of Alabama, Birmingham Islet Resource Facility and were cultured in RPMI 1640 with 11 mM glucose for up to 1 year. The medium was changed twice weekly and the islets were subcultured when they reached 90% confluence. For Isx treatments, cells were incubated in medium containing either Isx or the equivalent volume of DMSO vehicle (0.04%). To measure GSIS, cells were placed in Krebs-Ringer bicarbonate/Hepes containing 0.1% bovine serum albumin and 2 mM glucose for 2 h, and stimulated for 15 min with 20 mM glucose, a 1× amino-acid mixture (concentrations as in DMEM), or 50 nM Exendin-4.

[1] = system: rat insulin 1 promoter-luciferase reporter (pGL3-rIns -410, +1); test: Insulin promoter luciferase reporter assay in HEK293 cells; format: cell-based
Procedure: HEK 293 cells (0.15×10^6 cells) in triplicate were transfected with the pGL3-rIns reporter construct (0.1 μg/well) (Stratagene) and cotransfected with 0.5 μg/well of either empty vector (pcDNA3.1) or vectors encoding BETA2:myc, MafA:myc or PDX-1:myc using Lipofectamine 2000 (Invitrogen). After 24 h, cells were stimulated with 20 μM Isx or DMSO for another 24 h. Luciferase activity was measured using the dual luciferase reporter system (Promega) with Renilla Luciferase as an internal control.

insulin gene promoter = test: ChIP analysis of association with the insulin promoter in MIN6 cells; format: cell-based, mouse
Procedure: ChIP was as described (Lawrence et al., 2008) with the following modifications. Chromatin was cross-linked with 1% formaldehyde and sonicated with a Bioruptor 200 (Diagenode) in an ice cold water bath. Antibodies immobilized on protein A-Sepharose beads were used for immunoprecipitation. ChIP products were analyzed by real-time Q-PCR as previously described for real-time PCR analysis (Lawrence et al., 2008) using the following primers (5′-CAGACCTAGCACCAGGG-3′ (SEQ ID NO:1) and 5′-GGACTTTGCTGTTTGTCCC-3′ (SEQ ID NO:2)) to amplify the −157/−50 fragment of the mouse insulin promoter encompassing the C1 (MafA), E1 (BETA2) and A1 (PDX-1) binding sites. The results were expressed relative to input and presented as mean+/− SEM of at least two independent experiments in triplicate.

p300 = biological target: T1, p300 (Homo sapiens, UniProt Q09472); test: HAT activity of HATs expressed in 293 cells; format: cell-based; settings: combination of ERK2 expression and Isx, 24 h (FIG. 8)
T1 construct: expressed in transfected cells; host or cells: HEK293
T1 sequence (Q09472 whole entry, species assumed): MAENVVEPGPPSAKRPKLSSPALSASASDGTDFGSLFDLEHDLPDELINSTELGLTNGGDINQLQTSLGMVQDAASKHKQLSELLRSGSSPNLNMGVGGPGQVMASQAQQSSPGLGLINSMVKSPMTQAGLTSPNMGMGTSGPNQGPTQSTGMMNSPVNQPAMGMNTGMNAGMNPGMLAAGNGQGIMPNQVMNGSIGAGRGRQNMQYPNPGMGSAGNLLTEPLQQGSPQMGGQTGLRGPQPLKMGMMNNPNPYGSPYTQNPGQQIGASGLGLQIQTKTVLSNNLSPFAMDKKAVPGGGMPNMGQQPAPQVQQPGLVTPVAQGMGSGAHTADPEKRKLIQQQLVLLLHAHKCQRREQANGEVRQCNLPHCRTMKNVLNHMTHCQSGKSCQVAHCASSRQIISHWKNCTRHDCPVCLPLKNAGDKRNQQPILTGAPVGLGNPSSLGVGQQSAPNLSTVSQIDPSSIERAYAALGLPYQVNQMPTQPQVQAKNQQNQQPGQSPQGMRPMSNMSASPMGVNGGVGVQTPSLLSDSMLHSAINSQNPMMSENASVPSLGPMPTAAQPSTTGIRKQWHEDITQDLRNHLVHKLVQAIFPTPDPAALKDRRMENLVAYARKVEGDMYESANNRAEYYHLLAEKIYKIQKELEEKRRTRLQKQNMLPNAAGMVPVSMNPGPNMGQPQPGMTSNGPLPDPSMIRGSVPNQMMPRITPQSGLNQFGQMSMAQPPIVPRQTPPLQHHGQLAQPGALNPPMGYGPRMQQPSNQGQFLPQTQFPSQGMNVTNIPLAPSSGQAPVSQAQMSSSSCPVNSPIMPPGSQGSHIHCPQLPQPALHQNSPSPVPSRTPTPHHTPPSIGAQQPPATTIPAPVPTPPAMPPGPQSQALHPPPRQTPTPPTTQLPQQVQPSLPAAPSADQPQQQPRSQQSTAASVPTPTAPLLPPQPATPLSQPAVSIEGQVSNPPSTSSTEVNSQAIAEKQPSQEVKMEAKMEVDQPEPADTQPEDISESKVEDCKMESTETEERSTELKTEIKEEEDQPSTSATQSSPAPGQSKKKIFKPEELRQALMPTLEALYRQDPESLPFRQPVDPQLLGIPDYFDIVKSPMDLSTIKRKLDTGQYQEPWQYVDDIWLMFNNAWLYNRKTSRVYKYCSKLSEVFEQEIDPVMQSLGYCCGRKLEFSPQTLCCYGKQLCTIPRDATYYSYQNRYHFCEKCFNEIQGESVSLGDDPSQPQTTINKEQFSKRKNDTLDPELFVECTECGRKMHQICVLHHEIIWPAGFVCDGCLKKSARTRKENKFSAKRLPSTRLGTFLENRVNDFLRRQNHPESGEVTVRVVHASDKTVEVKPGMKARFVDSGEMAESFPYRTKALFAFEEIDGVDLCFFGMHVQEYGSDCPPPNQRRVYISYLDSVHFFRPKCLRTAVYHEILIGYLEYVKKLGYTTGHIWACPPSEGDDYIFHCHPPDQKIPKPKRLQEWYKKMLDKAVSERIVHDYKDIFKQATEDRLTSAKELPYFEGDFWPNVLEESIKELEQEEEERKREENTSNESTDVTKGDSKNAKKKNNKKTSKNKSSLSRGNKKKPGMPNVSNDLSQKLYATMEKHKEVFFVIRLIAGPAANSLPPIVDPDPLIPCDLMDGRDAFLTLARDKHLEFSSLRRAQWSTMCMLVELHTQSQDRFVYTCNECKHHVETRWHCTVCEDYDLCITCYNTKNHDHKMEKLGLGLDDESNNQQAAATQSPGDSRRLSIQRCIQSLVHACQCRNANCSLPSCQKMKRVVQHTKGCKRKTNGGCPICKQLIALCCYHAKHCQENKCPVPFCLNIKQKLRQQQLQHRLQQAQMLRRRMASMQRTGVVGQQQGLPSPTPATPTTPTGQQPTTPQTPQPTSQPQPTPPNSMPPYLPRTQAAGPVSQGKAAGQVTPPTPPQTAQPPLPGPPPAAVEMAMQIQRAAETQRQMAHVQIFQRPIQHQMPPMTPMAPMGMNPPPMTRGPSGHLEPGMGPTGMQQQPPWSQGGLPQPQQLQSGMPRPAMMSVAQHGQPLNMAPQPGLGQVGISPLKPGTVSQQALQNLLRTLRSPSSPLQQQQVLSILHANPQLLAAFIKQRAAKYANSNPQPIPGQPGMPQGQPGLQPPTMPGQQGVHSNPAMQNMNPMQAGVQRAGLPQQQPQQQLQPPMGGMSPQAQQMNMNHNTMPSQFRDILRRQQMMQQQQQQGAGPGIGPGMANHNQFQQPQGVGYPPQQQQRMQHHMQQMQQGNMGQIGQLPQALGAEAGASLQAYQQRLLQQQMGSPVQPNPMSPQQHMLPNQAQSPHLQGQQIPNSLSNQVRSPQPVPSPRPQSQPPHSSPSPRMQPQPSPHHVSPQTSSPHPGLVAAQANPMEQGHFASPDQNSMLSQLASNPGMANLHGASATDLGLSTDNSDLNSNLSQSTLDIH
Procedure: (§1) (FIG. 8A) Combined effect of Isx treatment for 24 h and WT ERK2 (W) or kinase dead K52R ERK2 (R) on the HAT activities of p300, and (FIG. 8B) other HATs, CBP, PCAF and GCN5-L2, transfected in HEK293 cells.

CBP = biological target: T2, CBP (Homo sapiens, UniProt Q92793); test: HAT activity of HATs expressed in 293 cells; format: cell-based; settings: combination of ERK2 expression and Isx, 24 h (FIG. 8)
T2 construct: expressed in transfected cells; host or cells: HEK293
T2 sequence (Q92793 whole entry): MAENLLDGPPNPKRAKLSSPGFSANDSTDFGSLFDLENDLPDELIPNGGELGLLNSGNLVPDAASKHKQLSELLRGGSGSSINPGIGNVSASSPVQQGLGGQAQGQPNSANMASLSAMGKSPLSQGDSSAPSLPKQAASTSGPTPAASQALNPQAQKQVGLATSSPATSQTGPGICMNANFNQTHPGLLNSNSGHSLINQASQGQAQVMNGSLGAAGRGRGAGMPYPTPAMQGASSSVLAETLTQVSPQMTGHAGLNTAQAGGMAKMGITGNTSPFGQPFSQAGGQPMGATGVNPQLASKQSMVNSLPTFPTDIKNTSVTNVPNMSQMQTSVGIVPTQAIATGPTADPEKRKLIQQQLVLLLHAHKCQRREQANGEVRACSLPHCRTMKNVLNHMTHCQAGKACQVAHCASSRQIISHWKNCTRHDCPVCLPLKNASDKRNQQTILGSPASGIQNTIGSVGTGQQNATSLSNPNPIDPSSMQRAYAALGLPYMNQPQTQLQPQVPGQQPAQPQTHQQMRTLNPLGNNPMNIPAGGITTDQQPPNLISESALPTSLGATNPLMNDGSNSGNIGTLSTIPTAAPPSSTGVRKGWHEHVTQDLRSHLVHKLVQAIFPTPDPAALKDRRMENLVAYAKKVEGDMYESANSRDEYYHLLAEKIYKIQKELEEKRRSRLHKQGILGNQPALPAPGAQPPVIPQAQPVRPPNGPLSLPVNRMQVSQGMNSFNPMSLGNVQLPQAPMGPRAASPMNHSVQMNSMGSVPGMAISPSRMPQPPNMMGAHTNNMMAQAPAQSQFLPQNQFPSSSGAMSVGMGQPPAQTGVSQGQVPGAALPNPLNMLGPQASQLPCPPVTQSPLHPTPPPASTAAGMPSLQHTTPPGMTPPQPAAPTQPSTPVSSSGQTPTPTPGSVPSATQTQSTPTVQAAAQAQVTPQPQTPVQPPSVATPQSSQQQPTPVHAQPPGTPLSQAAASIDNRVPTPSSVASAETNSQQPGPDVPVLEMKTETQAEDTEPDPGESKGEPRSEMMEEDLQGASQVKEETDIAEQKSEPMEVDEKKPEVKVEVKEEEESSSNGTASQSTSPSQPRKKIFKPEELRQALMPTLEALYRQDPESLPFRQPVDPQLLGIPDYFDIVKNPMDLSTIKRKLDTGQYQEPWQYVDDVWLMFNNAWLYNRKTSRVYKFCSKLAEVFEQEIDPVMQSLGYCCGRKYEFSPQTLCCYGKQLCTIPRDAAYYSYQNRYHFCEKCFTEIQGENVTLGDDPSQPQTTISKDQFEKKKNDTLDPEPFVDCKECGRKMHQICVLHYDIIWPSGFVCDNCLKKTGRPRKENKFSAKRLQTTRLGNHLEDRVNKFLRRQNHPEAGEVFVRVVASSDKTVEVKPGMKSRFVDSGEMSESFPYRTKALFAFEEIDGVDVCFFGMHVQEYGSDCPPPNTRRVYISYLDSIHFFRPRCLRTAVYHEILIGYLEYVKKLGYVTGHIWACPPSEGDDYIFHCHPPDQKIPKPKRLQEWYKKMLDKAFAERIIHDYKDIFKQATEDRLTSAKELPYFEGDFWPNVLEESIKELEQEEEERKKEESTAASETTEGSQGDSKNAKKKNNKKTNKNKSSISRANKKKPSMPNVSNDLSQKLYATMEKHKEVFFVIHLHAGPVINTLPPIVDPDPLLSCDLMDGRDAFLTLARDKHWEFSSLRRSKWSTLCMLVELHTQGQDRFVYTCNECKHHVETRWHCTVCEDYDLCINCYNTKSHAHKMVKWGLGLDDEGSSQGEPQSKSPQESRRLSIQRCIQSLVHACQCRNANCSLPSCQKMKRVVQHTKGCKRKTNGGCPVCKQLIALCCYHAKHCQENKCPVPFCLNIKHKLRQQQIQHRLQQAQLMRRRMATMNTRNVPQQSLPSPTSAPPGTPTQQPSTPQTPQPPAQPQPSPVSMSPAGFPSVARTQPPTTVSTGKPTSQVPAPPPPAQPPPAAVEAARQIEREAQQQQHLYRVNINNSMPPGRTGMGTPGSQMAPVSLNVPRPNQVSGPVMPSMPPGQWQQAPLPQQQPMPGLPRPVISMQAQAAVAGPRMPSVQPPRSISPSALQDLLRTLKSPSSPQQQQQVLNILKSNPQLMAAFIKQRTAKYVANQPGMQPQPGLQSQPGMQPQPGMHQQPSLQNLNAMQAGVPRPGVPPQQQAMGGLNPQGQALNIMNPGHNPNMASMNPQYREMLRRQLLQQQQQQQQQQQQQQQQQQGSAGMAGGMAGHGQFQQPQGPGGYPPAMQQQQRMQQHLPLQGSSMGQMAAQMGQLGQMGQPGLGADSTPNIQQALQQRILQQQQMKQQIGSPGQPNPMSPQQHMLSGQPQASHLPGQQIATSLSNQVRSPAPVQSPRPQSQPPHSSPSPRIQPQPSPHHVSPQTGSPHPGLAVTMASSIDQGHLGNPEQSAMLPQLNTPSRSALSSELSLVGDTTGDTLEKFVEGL
Procedure: as §1

[2] = 24 h exposure, 5-80 μM Isx (FIG. 2A)

**Q.** O=C(NC1CC1)c1cc(-c2cccs2)on1 [Isx, N-cyclopropyl-5-(thiophen-2-yl)isoxazole-3-carboxamide] was tested. Which “ERK1/2 activation, time course” value (MIN6 cells; 20 μM Isx, 15 min to 24 h (FIG. 6)) did it give?
**A.** biphasic effect

**Q.** And the MafA expression (MIN6 cells; [2])?
**A.** increased substantially

**Q.** What about the PDX-1 expression (MIN6 cells; [2]) of the same compound?
**A.** little if any change

**Q.** And the “immunoreactive BETA2” value (MIN6 cells; [2])?
**A.** increased at all concentrations

**Q.** What about the “Acetylation of histone H3 and H4” value (MIN6 cells; MIN6 cells treated with Isx (FIG. 2A, FIG. 4A)) of the same compound?
**A.** increased; also recorded: marked effect

**Q.** And the ERK1/2 phosphorylation (MIN6 cells; following 24 h of exposure)?
**A.** detectable

**Q.** And the “increase of the activity of PDX-1 (insulin gene reporter) by Isx” value ([1]; 20 μM Isx 24 h)?
**A.** two-fold or less

**Q.** And the “Insulin gene reporter activity increase by either BETA2 or MafA in the presence of Isx” value ([1]; 20 μM Isx 24 h (FIG. 3A, FIG. 7))?
**A.** ≥ 4 fold

**Q.** And the “Chromatin recruitment of p300 to the insulin promoter upon stimulation by glucose” value (insulin gene promoter; Isx pretreatment 24 h)?
**A.** increased

**Q.** What about the “chromatin binding of BETA2 and MafA to the insulin gene promoter” value (insulin gene promoter; compared with glucose stimulation (FIGS. 3D-E)) of the same compound?
**A.** Comparable or greater

**Q.** What about the “p300 HAT activity” value (p300) of the same compound?
**A.** increased

**Q.** What about the “CBP HAT activity” value (CBP) of the same compound?
**A.** increased
